We go through one substance from patent publication EP4610270A1, “NOVEL ANTIMICROBIAL PEPTIDE AND PHARMACEUTICAL COMPOSITION THEREOF” (Qingdao Sensheng Biopharmaceutical Technology Co., Ltd, priority 2022, dated 2024).

The subject of data set [1] is Staphylococcus aureus 25923 (ATCC 25923, S. aureus 25923). As to the kind of experiment: Antimicrobial activity by liquid antimicrobial / turbidimetric method (OD540, microplate reader). The data set is classed as cell-based. The note with it: S. aureus drug sensitive strain; FIG. 2. The method, then:
(§1) The materials of Gram negative bacteria and Gram positive bacteria used in the embodiments of the present disclosure include Gram negative bacteria Escherichia coli strain Escherichia coli 25922 (ATCC 25922, E. coli 25922) and Gram positive bacteria Staphylococcus aureus strain Staphylococcus aureus 25923 (ATCC 25923, S. aureus 25923). […] 100 µl of the sample was immediately taken and placed in a microplate reader to measure its OD540, which was recorded as OD 0h. Then the sample was placed in a 37°C constant temperature incubator for cultivation, 100 µl of the sample was taken every 1 h, and the OD540 of each centrifuge tube was measured. Based on the changes in absorbance, the growth of bacteria could be determined, and the antimicrobial activity and minimum inhibitory concentration (MIC) of the polypeptide could be determined. […] 100 µl of the sample was immediately taken and placed in a microplate reader to measure its OD540, which was record as OD 0h. Then the sample was placed in a 37°C constant temperature incubator for cultivation, 100 µl of the sample was taken every 1 h, and the OD540 of each centrifuge tube was measured once.

Data set [2] relates to Escherichia coli 25922 (ATCC 25922, E. coli 25922). The data set is described as above. The settings on record: E. coli drug sensitive strain; FIG. 1. Type of data set: cell-based. On the procedure:
as §1

The subject of data set [3] is RAW264.7 mouse macrophage cell line. In words: Anti-inflammatory experiment: NO release after LPS stimulation (Griess). Type of data set: cell-based. The note with it: antimicrobial peptide 80 µM; 1 µg/ml LPS stimulation; FIG. 4. The source says:
NO is a diffusible and membrane permeable small molecule obtained during the oxidation of L-arginine by NOS. NO was associated with many physiological reactions in organisms. […] But at low concentrations, NO could act as a signal to positively and negatively regulate innate and acquired immunity. Thus, by detecting the concentration of NO released by cells, the inflammatory response of cells could be detected.
The RAW264.7 mouse macrophage cell line was used as the experimental material and cultured in a DMEM high glucose medium containing FBS (10%) and penicillin-streptomycin dual antibody (100 U/ml). The RAW264.7 mouse macrophage cell line was used for experiments when the cell state was stable, the shape was full, and the edges were transparent.
• 1. The culture medium was removed from the cells and gently purged twice with PBS at room temperature to remove excess culture medium. After digestion with 0.25% trypsin for 3 min, the culture bottle was gently tapped to induce cell detachment, and then the culture medium was added to terminate digestion. The culture bottle was repeatedly blown and beaten to make the cells uniform. • 2. […]
4.2 In this experiment, NO was detected by the method provided in the total nitric oxide content determination kit, and improvements were made. […]

Data set [4] deals with Human red blood cells (RBC). Type of data set: cell-based. The method, then: Human red blood cells (RBC) were used to detect the hemolytic activity of Ac-SH-17. All subjects provided written informed consent. The obtained healthy human blood was placed in an EDTA anticoagulant tube. Red blood cells were collected by centrifugation and suspended in PBS to a concentration of 4% (v/v). An equal portion of 200 µl red blood cell suspension was mixed with 200 µl of Ac-SH-17 solution at different concentrations (12.5, 25, 50, 100, and 200 µg/ml). After incubation at 37°C, the mixture was centrifuged […], and the supernatant was collected and added to a 96-well plate. Red blood cells incubated with PBS, BSA solution (100 µg/ml), or 0.1% Triton X-100 solution were used as blank control, negative control, and positive control, respectively. The absorbance was measured at 540 nm using a microplate reader. Three parallel samples were set up for each experiment, and the experiment was repeated at least three times. The results were analyzed for significant differences by a two-way ANOVA method, with p<0.05 indicating significant differences. Table 3.1 Hemolysis analysis

A short description of data set [5]: Antisepsis experiment: survival in fecal homogenate sepsis model. The data set is classed as in vivo, SD rats. The settings on record: intraperitoneal 0.5 ml of 80 µM; within 24 h; compared to the model group; FIG. 5. On the procedure:
Sepsis refers to a systemic inflammatory response syndrome caused by infectious factors. A rat model of intestinal sepsis was established by injecting rat fecal homogenate into the abdominal cavity of model rats, followed by intraperitoneal injection of antimicrobial peptides to observe the survival rate of mice within 10-48 h, in order to evaluate the therapeutic effect of antimicrobial peptides on sepsis in mice.
60 SD rats were randomly divided into 6 groups by a random number table method, i.e., model group 1, model group 2, model group 3, model group 4, model group 5, and blank group, with 10 rats in each group. These 6 groups of rats were weighed and numbered in sequence.
After 1 week of adaptive feeding, fresh formed feces were collected from these 60 SD rats. After weighing the rat feces, an appropriate amount of physiological saline was added to it, and then the mixture was placed in a homogenizer for thorough grinding to prepare a rat feces homogenate at the concentration of 10%. The rat fecal homogenate was centrifuged at 3000 rpm for 5 min to obtain the supernatant, and then a syringe was used to suck out an appropriate amount of the supernatant for later use.
Before modeling, rats in model groups 1-5 were fasted for 12 hours, and then a 10% concentration of rat feces homogenate supernatant was injected intraperitoneally at a dose of 1 ml/200 g. […]

As for “Ac-SRMKKWAKIIEKWRKWH-NH2 [Ac-SH-17, Ac-SRMKKWAKIIEKWRKWH-NH2]”, the antimicrobial activity result in data set [1] is recorded as “exhibited antimicrobial activity”. Besides, the antimicrobial activity result in data set [2] is “exhibited antimicrobial activity”. Further, in data set [3], the “inhibition of the release of NO” value is listed as “significantly inhibited the release of NO” and the “release concentration of NO” value is reported as “substantially the same as that of the blank control”. Further, in data set [4], the “OD Value” came to 0.061±0.013 and the hemolytic effect result is “does not have significant hemolytic effect”. Besides, the “Hemolysis Ratio (%)” value in data set [4] (red cells of human) was found to be 4.40%. Moreover, the survival rate result in data set [5] was “significantly improved the survival rate”.
